Data taken from patent US6706663B2, “Herbicidal 3-heterocyclic substituted benzisothiazole and benzisoxazole compounds” (Wyeth, priority 2000, dated 2004).

Tests used:
[1] = system: IPOHE (Ipomoea hederacea); experiment: Postemergence herbicidal evaluation; assay type: in vivo, (L.) Jacq.; settings: postemergence
Outline: (§1)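 Visual 0–9 injury scores versus control plants, covering stand, vigour, malformation, size, chlorosis and general appearance, taken four to five weeks post-spray and averaged over replicate tests. Plants were sprayed at roughly two weeks old and held on greenhouse benches.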

[2] = system: ECHCG (Echinochloa crus-galli); experiment: Postemergence herbicidal evaluation; assay type: in vivo, (L.) Beau; settings: postemergence
Outline: as §1

[3] = system: SETVI (Setaria viridis); experiment: Postemergence herbicidal evaluation; assay type: in vivo, (L.) Beau; settings: postemergence
Outline: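 Ratings use a 0-9 visual scale covering stand, vigor, malformation, size, chlorosis and appearance versus a control, scored 4-5 weeks post-spray. Roughly two-week-old seedlings received about 0.0040-1.000 kg/ha active, applied in 50/50 acetone/water with 0.5% TWEEN 20. Multiple tests per compound were averaged.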

[4] = system: GLXMAW (Soybean, Williams); experiment: Postemergence herbicidal evaluation; assay type: in vivo, Glycine max, (L.) Merr. cv Williams; settings: postemergence
Outline: as §1

[5] = system: ORYSAT (Rice, Tebonnet); experiment: Postemergence herbicidal evaluation; assay type: in vivo, Oryza sativa, (L.) Tebonnet; settings: postemergence
Outline: as §1

[6] = system: TRZAWR (Wheat, Winter, cv Riband); experiment: Postemergence herbicidal evaluation; assay type: in vivo, Triticum aestivum; settings: postemergence
Outline: as §1

[7] = system: ZEAMX (Corn, Field); experiment: Postemergence herbicidal evaluation; assay type: in vivo, Zea mays, L.; settings: postemergence
Outline: as §1

[8] = system: ABUTH (Abutilon theophrasti); experiment: Preemergence herbicidal evaluation; assay type: in vivo, Medic.; settings: rated 4-5 weeks after treatment
[9] = system: AMBEL (Ambrosia artemisifolia); experiment: Preemergence herbicidal evaluation; assay type: in vivo, L.; settings: rated 4-5 weeks after treatment
Outline: (§2)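 Rating 0–9, visual, vs control; 4–5 wk after spraying seeded cups with compound in aq. acetone; conventional greenhouse care.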

[10] = system: CASOB (Cassia obtusifolia); experiment: Preemergence herbicidal evaluation; assay type: in vivo, L.; settings: rated 4-5 weeks after treatment
Outline: as §2

[11] = system: CHEAL (Chenopodium album); experiment: Preemergence herbicidal evaluation; assay type: in vivo, L.; settings: rated 4-5 weeks after treatment
Outline: as §2

[12] = system: ECHCG (Echinochloa crus-galli); experiment: Preemergence herbicidal evaluation; assay type: in vivo, (L.) Beau; settings: rated 4-5 weeks after treatment
Outline: as §2

[13] = system: SETVI (Setaria viridis); experiment: Preemergence herbicidal evaluation; assay type: in vivo, (L.) Beau; settings: rated 4-5 weeks after treatment
Outline: as §2

[14] = system: ORYSAT (Rice, Tebonnet); experiment: Preemergence herbicidal evaluation; assay type: in vivo, Oryza sativa, (L.) Tebonnet; settings: rated 4-5 weeks after treatment
[15] = system: TRZAWR (Wheat, Winter, cv Riband); experiment: Preemergence herbicidal evaluation; assay type: in vivo, Triticum aestivum; settings: rated 4-5 weeks after treatment
Outline: as §2

[16] = system: ECHORC (Echinochloa oryzoides); experiment: Flooded paddy, preemergence weed control; assay type: in vivo, Echinochloa oryzoides (Ard.) Fritsch.; settings: rated 3-4 weeks after treatment, 0-9 rating scale
Outline: (§3)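 Ratings of 0-9 reflect visual comparison with a control for stand, vigor, deformity, size, chlorosis and overall look. Propagules were placed in shallow silt loam (top 0.5 cm) under a continuous 1.5–3 cm flood and grown in the greenhouse.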

[17] = system: CYPSE (Cyperus serotinus); experiment: Flooded paddy, preemergence weed control; assay type: in vivo, Rottb.; settings: rated 3-4 weeks after treatment, 0-9 rating scale
Outline: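 Seeds or propagules were planted 0.5 cm deep in silt loam and flooded to 1.5–3 cm. Compounds in 50/50 v/v aqueous/acetone were pipetted into the flood water at about 0.0080 to 0.1250 kg/ha. After 3–4 weeks in the greenhouse, effect was rated visually on a 0–9 scale versus untreated control.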

[18] = system: MOOVA (Monochoria vaginalis); experiment: Flooded paddy, preemergence weed control; assay type: in vivo, Presl.; settings: rate 0.0320 kg/ha, rated 3-4 weeks after treatment, 0-9 rating scale
Outline: as §3

`Cc1nn(-c2nsc3ccc(-n4c(=O)cc(C(F)(F)F)n(C)c4=O)cc23)c(C)c1C` [Compound 49, 1-methyl-6-(trifluoromethyl)-3-[3-(3,4,5-trimethylpyrazol-1-yl)-1,2-benzisothiazol-5-yl]uracil] showed an IPOHE herbicidal rating ([1]; rate 0.0320 kg/ha) of 5.0, an IPOHE herbicidal rating ([1]; rate 0.0620 kg/ha) of 8.0 and an ECHCG herbicidal rating ([2]; rate 0.0320 kg/ha) of 0.0. For the same molecule, the ECHCG herbicidal rating ([2]; rate 0.0620 kg/ha) was 0.0, the SETVI herbicidal rating ([3]; rate 0.0320 kg/ha) was 0.0 and the SETVI herbicidal rating ([3]; rate 0.0620 kg/ha) was 0.0. For the same molecule, the GLXMAW herbicidal rating ([4]; rate 0.0320 kg/ha) was 1.5, the GLXMAW herbicidal rating ([4]; rate 0.0620 kg/ha) was 2.5 and the ORYSAT herbicidal rating ([5]; rate 0.0320 kg/ha) was 0.5. The ORYSAT herbicidal rating ([5]; rate 0.0620 kg/ha) was 1.5, the TRZAWR herbicidal rating ([6]; rate 0.0320 kg/ha) was 0.5 and the TRZAWR herbicidal rating ([6]; rate 0.0620 kg/ha) was 1.5. For the same molecule, the ZEAMX herbicidal rating ([7]; rate 0.0320 kg/ha) was 0.5, the ZEAMX herbicidal rating ([7]; rate 0.0620 kg/ha) was 2.5 and the “Preemergence herbicidal rating ABUTH” value ([8]; Rate 0.0620 kg/ha) was 0.0. The “Preemergence herbicidal rating ABUTH” value ([8]; Rate 0.1250 kg/ha) was 0.0, the “Preemergence herbicidal rating ABUTH” value ([8]; Rate 0.2500 kg/ha) was 0.0 and the “Preemergence herbicidal rating AMBEL” value ([9]; Rate 0.0620 kg/ha) was 0.0. The “Preemergence herbicidal rating AMBEL” value ([9]; Rate 0.1250 kg/ha) was 0.0, the “Preemergence herbicidal rating AMBEL” value ([9]; Rate 0.2500 kg/ha) was 0.0 and the “Preemergence herbicidal rating CASOB” value ([10]; Rate 0.0620 kg/ha) was 0.0. The “Preemergence herbicidal rating CASOB” value ([10]; Rate 0.1250 kg/ha) was 0.0, the “Preemergence herbicidal rating CASOB” value ([10]; Rate 0.2500 kg/ha) was 0.0 and the “Preemergence herbicidal rating CHEAL” value ([11]; Rate 0.0620 kg/ha) was 0.0. For the same molecule, the “Preemergence herbicidal rating CHEAL” value ([11]; Rate 0.1250 kg/ha) was 0.0, the “Preemergence herbicidal rating CHEAL” value ([11]; Rate 0.2500 kg/ha) was 0.0 and the “Preemergence herbicidal rating ECHCG” value ([12]; Rate 0.0620 kg/ha) was 0.0. The “Preemergence herbicidal rating ECHCG” value ([12]; Rate 0.1250 kg/ha) was 0.0, the “Preemergence herbicidal rating ECHCG” value ([12]; Rate 0.2500 kg/ha) was 0.0 and the “Preemergence herbicidal rating SETVI” value ([13]; Rate 0.0620 kg/ha) was 0.0. The “Preemergence herbicidal rating SETVI” value ([13]; Rate 0.1250 kg/ha) was 0.0, the “Preemergence herbicidal rating SETVI” value ([13]; Rate 0.2500 kg/ha) was 0.0 and the “Preemergence herbicidal rating ORYSAT” value ([14]; Rate 0.0620 kg/ha) was 0.0. For the same molecule, the “Preemergence herbicidal rating ORYSAT” value ([14]; Rate 0.1250 kg/ha) was 0.0, the “Preemergence herbicidal rating ORYSAT” value ([14]; Rate 0.2500 kg/ha) was 0.0 and the “Preemergence herbicidal rating TRZAWR” value ([15]; Rate 0.0620 kg/ha) was 0.0. The “Preemergence herbicidal rating TRZAWR” value ([15]; Rate 0.1250 kg/ha) was 0.0, the “Preemergence herbicidal rating TRZAWR” value ([15]; Rate 0.2500 kg/ha) was 0.0 and the “herbicidal rating, ECHORC” value ([16]; rate 0.0320 kg/ha) was 0.0. For the same molecule, the “herbicidal rating, ECHORC” value ([16]; rate 0.1250 kg/ha) was 0.0, the “herbicidal rating, CYPSE” value ([17]; rate 0.0320 kg/ha) was 0.0 and the “herbicidal rating, CYPSE” value ([17]; rate 0.1250 kg/ha) was 0.0. For the same molecule, the “herbicidal rating, MOOVA” value [18] was 0.0.
